Assay results taken from US10222370B2, “Screening assay for choice of prebiotic to prevent/treat gastrointestinal and systemic diseases” (Rush University Medical Center, priority 2014, dated 2019).
Entries after “also recorded” stand apart in the source; their conditions may differ.

Legend:
Type in all cases: cell-based, human
[1] = system: T84 monolayers co-cultured with CD3/28-activated PBMC; test: T84/PBMC co-culture, barrier integrity by transepithelial electrical resistance (TER); conditions: for TER of T84 monolayers: apical exposure, 24 h and 48 h, vs medium control; for PBMC-induced disruption of intestinal epithelial barrier integrity (injurious effects of activated PBMC): PBMC from food allergy patients, agonist on apical side of T84 cells, FIG. 3
Method: (§1) The T84 cells are grown in DMEM/F-12 (1:1) supplemented with GlutaMAX®, 10% fetal bovine serum and […] penicillin/streptomycin. (T84 cells (human colorectal carcinoma cell line, ATCC® CCL-248™, Manassas, Va., USA). T84 cells were seeded in 12-well transwell insert filters (Coming Inc., NY, USA) and cultured in T84 cell medium for 3-4 weeks till co-culture with PBMC. Transepithelial electrical resistance (TER) was measured during culture, which generally increases to >1500 Ω×cm^2 and becomes stable after 3-4 weeks of culture. When TER was ≥2000 Ω×cm^2, T84 monolayers 14 were co-cultured with 1.5×10^6 PBMC 16 in the basolateral chamber.
(§2) The PBMC 16 for use in the co-cultures are isolated from 20 mL fresh blood from healthy controls (n=6) and subjects with food allergy (n=8) (Table 1). The average age of healthy controls was 36 (range 24-54) vs. 51 (range 26-74) for food allergic subjects (P>0.05). PBMC were isolated by density gradient centrifugation using lymphocyte separation medium according to manufacturer's protocol (Cellgro, Mediatec, Inc., Manassas, Va., USA). PBMC were collected in RPMI1640 supplemented with L-glutamine (Gibco), 2.5% fetal bovine serum, 1% penicillin/streptomycin and 1% sodium pyruvate (Sigma, St. Louis, Mo., USA) (PBMC medium) at 1×10^6 cell/mL.
(§3) T84/PBMC co-cultures were maintained in PBMC medium. PBMC were stimulated using CD3 and CD28 antibodies (clone OKT3 and CD28.2, 0.2 μg/mL; eBioscience, San Diego, Calif., USA) and simultaneously IEC were stimulated apically with Pam3CSK4, LPS or type C CpG oligonucleotide M362 (Invivogen, San Diego, Calif., USA) as previously described. Cultures were maintained at 37° C./5% CO2 for indicated time points.
(§4) The barrier integrity of T84 monolayers was assessed by measuring the TER and paracellular permeability to 4 kDa FITC-dextran. In short, TER was measured using a dual electrode system designed for cell culture insert analysis (EVOM; World Precision Instruments, Sarasota, Fla.) prior to co-culture and at indicated time points during co-culture. Data is reported as percentage of the initial TER value measured before co-culture. For assessment of permeability, T84 monolayers were separated from PBMC and cultured in PBMC medium for 1 h. The monolayers were then apically exposed to 1 mg/mL 4 kDa FITC-dextran (Sigma) and basolateral supernatants were collected after 60 min. FITC-dextran was measured at excitation wavelength 485 nm and emission wavelength 520 nm. The 4 kDa FITC-dextran flux was expressed as pmol/(h×cm^2).
In some experiments, PBMC are stimulated using antibodies against CD3 and CD28 and T84 cell monolayers were simultaneously exposed to synthetic TLR ligands or fermentation product 12 (co-culture of stool samples without or with different prebiotics). SCFA content (acetate, propionate and butyrate) in the fermentation products (“Fermenta”) 12 was analyzed by HPLC. TER was measured at t=0 h, t=4 h, t=18 h and t=24 h to monitor changes in the barrier integrity of the T84 monolayers. Non-limiting example of prebiotics include commercially available inulin and fructose oligosaccharides (FOS) that promote production of Butyrate by intestinal bacteria, galactose oligosaccharides (GOS) that promote growth of bifidobacteria in the intestine or prebiotics like resistant starch, corn arbionoxylan that promotes propionate. Other prebiotics may also be used.

[2] = system: T84 monolayers co-cultured with CD3/28-activated PBMC; test: T84/PBMC co-culture, paracellular permeability to 4 kDa FITC-dextran; conditions: 48 h co-culture, vs medium control
Method: as §1, §2
T84/PBMC co-cultures were maintained in PBMC medium. […]
as §4, with “For assessment of permeability, T84 monolayers were separated from PBMC and cultured in PBMC medium for 1 h. The monolayers were then apically exposed to 1 mg/mL 4 kDa FITC-dextran (Sigma) and basolateral supernatants were collected after 60 min.” left out

T84/PBMC co-cultures = test: Cytokine production in T84/PBMC co-cultures with apical TLR ligands (ELISA); conditions: for IL-6 / IFN-γ / IL-8 / IL-10 / IL-13 / TNF-α: T84/PBMC, mean ± SEM; for IL-6 / IFN-γ / IL-8 / IL-10 / IL-13 / TNF-α / IFN-γ/IL-13 ratio: 24 h; for IL-10/IL-13 ratio / IFN-γ/IL-13 ratio / IL-10/IFN-γ: T84/PBMC co-cultures; for IL-10/IL-13 ratio / IFN-γ/IL-13 ratio: vs medium; for IL-10/IFN-γ: apical exposure
Method: as §1, §2, §3
(§5) Cytokine levels were measured by ELISA. IL-6, IL-8, IL-10, IL-13, IFN-γ and TNF-α were measured using the Ready-Set-Go!® ELISA kit from eBioscience according to manufacturer's protocol (eBioscience, Inc., San Diego, Calif., USA).
(§6) To evaluate whether epithelial TLR ligation modulates cytokine production by the PBMC, basolateral supernatants were collected 24 h after co-culture. Exposure of CD3/28-activated PBMC in the absence of IEC to TLR ligands served as a control to evaluate the contribution of IEC in modulating the cytokine production by PBMC. First we evaluated the production of IFN-γ and IL-13 as a reflection of a Th1 and Th2 type effector response (Table 3). No significant changes in the production of IFN-γ or IL-13 were observed, though IFN-γ production by the PBMC from food allergic subjects tended to be lower in T84/PBMC co-cultures (P=0.093). […] This was not observed when PBMC were stimulated with CpG DNA in absence of T84 cells (FIG. 7B).

PBMC = test: Cytokine production by CD3/28-activated PBMC in absence of T84 cells (ELISA); conditions: for IFN-γ / IL-6 / IL-8 / IL-10 / IL-13 / TNF-α / IFN-γ/IL-13 ratio: PBMC in absence of T84 cells, 24 h; for IFN-γ / IL-6 / IL-8 / IL-10 / IL-13 / TNF-α: mean ± SEM; for IL-10/IL-13 ratio: absence of T84 cells
Method: as §2, §3, §5, §6

[3] = PBMC from food allergic subjects

## Pam3CSK4
[1]; [3]
  TER of T84 monolayers: did not affect
[1]; PBMC from healthy controls
  TER of T84 monolayers: did not affect
[2]; PBMC from healthy controls
  permeability of T84 monolayers to 4 kDa FITC-dextran: increased the permeability
T84/PBMC co-cultures; FA (food allergy) PBMC
  IL-6: 5968 ± 1324 pg/mL
T84/PBMC co-cultures; FA PBMC
  IFN-γ: 6533 ± 2125 pg/mL
  IL-8: 16854 ± 4954 pg/mL
  IL-10: 853.3 ± 212.9 pg/mL
  IL-13: 40.8 ± 12.1 pg/mL
  TNF-α: 2251 ± 534 pg/mL
T84/PBMC co-cultures; HC (healthy control) PBMC
  IL-6: 7209 ± 1531 pg/mL
T84/PBMC co-cultures; HC PBMC
  IFN-γ: 8614 ± 2455 pg/mL
  IL-8: 23052 ± 5527 pg/mL
  IL-10: 581.1 ± 110.7 pg/mL
  IL-13: 37.8 ± 9.2 pg/mL
  TNF-α: 3073 ± 509 pg/mL
PBMC; FA
  IFN-γ: 2824 ± 1163 pg/mL
  IL-6: 8073 ± 2055 pg/mL
  IL-8: 32940 ± 4869 pg/mL
  IL-10: 422.8 ± 98.6 pg/mL
  IL-13: 59.4 ± 15.2 pg/mL
  TNF-α: 979.1 ± 244^ pg/mL
PBMC; HC
  IFN-γ: 5663 ± 1768 pg/mL
  IL-6: 9472 ± 2153 pg/mL
  IL-8: 43737 ± 2856 pg/mL
  IL-10: 254.7 ± 135.4 pg/mL
  IL-13: 59.2 ± 17.0 pg/mL
  TNF-α: 2206 ± 1155 pg/mL

## type C CpG oligonucleotide M362 [CpG DNA]
[1]; [3]
  TER of T84 monolayers: prevented PBMC-induced barrier disruption; also recorded: increased
[1]; listed as TLR9 agonist
  PBMC-induced disruption of intestinal epithelial barrier integrity (injurious effects of activated PBMC): prevented
[1]; listed as TLR-9 agonist
  PBMC-induced disruption of intestinal epithelial barrier integrity (injurious effects of activated PBMC): significantly blunted
[1]; PBMC from healthy controls
  TER of T84 monolayers: prevented PBMC-induced barrier disruption; also recorded: increased
[2]; [3]
  permeability of T84 monolayers to 4 kDa FITC-dextran: reduced epithelial permeability
T84/PBMC co-cultures; T84/PBMC co-culture, PBMC from both healthy controls and food allergic subjects, in words
  production of IL-6, IL-8 and TNF-α by PBMC: suppressed
T84/PBMC co-cultures; PBMC from food allergic patients
  IL-10/IL-13 ratio: significantly increased
T84/PBMC co-cultures; food allergic subjects
  IFN-γ/IL-13 ratio: enhanced; also recorded: increased
  IL-10/IFN-γ: 0.19±0.06
T84/PBMC co-cultures; healthy controls
  IFN-γ/IL-13 ratio: enhanced; also recorded: increased
  IL-10/IFN-γ: 0.12±0.06
T84/PBMC co-cultures; healthy donor PBMC
  IL-10/IL-13 ratio: tended to increase
T84/PBMC co-cultures; FA (food allergy) PBMC
  IL-6: 6400 ± 1671 pg/mL
T84/PBMC co-cultures; FA PBMC
  IFN-γ: 7040 ± 2454 pg/mL
  IL-8: 15733 ± 4509 pg/mL
  IL-10: 834 ± 233.6 pg/mL
  IL-13: 35.9 ± 10.5 pg/mL
  TNF-α: 2092 ± 493 pg/mL
T84/PBMC co-cultures; HC (healthy control) PBMC
  IL-6: 7291 ± 1376 pg/mL
T84/PBMC co-cultures; HC PBMC
  IFN-γ: 10731 ± 3289 pg/mL
  IL-8: 20758 ± 5247 pg/mL
  IL-10: 652.8 ± 105.5 pg/mL
  IL-13: 27.5 ± 7.5 pg/mL
  TNF-α: 2531 ± 552 pg/mL
T84/PBMC co-cultures; apical exposure of T84 monolayers, FIG. 4, listed as TLR9 agonist
  Th1/Th2 balance of the effector immune response: shifts the balance of the effector immune response away from the allergy-associated Th2 response; also recorded: reversed the Th1/Th2 balance away from the allergic TH2 phenotype
PBMC; FA
  IFN-γ: 3945 ± 1543 pg/mL
  IL-6: 5940 ± 2450 pg/mL
  IL-8: 25420 ± 6779 pg/mL
  IL-10: 477.3 ± 157.7 pg/mL
  IL-13: 39.9 ± 12.8 pg/mL
  TNF-α: 1199 ± 437 pg/mL
PBMC; HC
  IFN-γ: 2394 ± 966 pg/mL
  IL-6: 2564 ± 824 pg/mL
  IL-8: 19912 ± 2430 pg/mL
  IL-10: 391.9 ± 149.3 pg/mL
  IL-13: 19.5 ± 3.8 pg/mL
  TNF-α: 1024 ± 213 pg/mL
PBMC; food allergic subjects
  IFN-γ/IL-13 ratio: not observed
PBMC; healthy controls
  IFN-γ/IL-13 ratio: not observed
PBMC; [3]
  IL-10/IL-13 ratio: did not affect
PBMC; PBMC from healthy controls
  IL-10/IL-13 ratio: enhanced
PBMC; direct stimulation of PBMC from food allergic subjects, in words
  production of IL-6, IL8 and TNF-α: did not suppress
PBMC; direct stimulation of PBMC from healthy controls, in words
  pro-inflammatory cytokine production: reduced

## LPS
[1]; [3]
  TER of T84 monolayers: did not affect
[1]; PBMC from healthy controls
  TER of T84 monolayers: did not affect
[2]; PBMC from healthy controls
  permeability of T84 monolayers to 4 kDa FITC-dextran: increased the permeability
T84/PBMC co-cultures; FA (food allergy) PBMC
  IL-6: 7410 ± 2112 pg/mL
T84/PBMC co-cultures; FA PBMC
  IFN-γ: 4390 ± 1700 pg/mL
  IL-8: 17103 ± 4334 pg/mL
  IL-10: 777.6 ± 163.2 pg/mL
  IL-13: 33.8 ± 11.0 pg/mL
  TNF-α: 2403 ± 516 pg/mL
T84/PBMC co-cultures; HC (healthy control) PBMC
  IL-6: 9040 ± 2424 pg/mL
T84/PBMC co-cultures; HC PBMC
  IFN-γ: 10392 ± 2967 pg/mL
  IL-8: 23124 ± 5683 pg/mL
  IL-10: 632.7 ± 125.1 pg/mL
  IL-13: 31.3 ± 9.1 pg/mL
  TNF-α: 2928 ± 712 pg/mL
PBMC; FA
  IFN-γ: 2188 ± 908 pg/mL
  IL-6: 9909 ± 2073 pg/mL
  IL-8: 35682 ± 4770 pg/mL
  IL-10: 586 ± 159.4 pg/mL
  IL-13: 34.0 ± 10.7 pg/mL
  TNF-α: 945.4 ± 294 pg/mL
PBMC; HC
  IFN-γ: 6070 ± 2282 pg/mL
  IL-6: 12399 ± 2174 pg/mL
  IL-8: 43034 ± 2960 pg/mL
  IL-10: 545.4 ± 134.7 pg/mL
  IL-13: 28.3 ± 8.7 pg/mL
  TNF-α: 2607 ± 1165 pg/mL
PBMC; [3]
  IL-10/IL-13 ratio: increased
PBMC; PBMC from healthy controls
  IL-10/IL-13 ratio: enhanced
